In brackets after ≈: the same amount, converted by molar mass. Like-named read-outs stand apart in the source and are kept apart here.
Experiments:
Format in all cases: cell-based
[1] = test system: Staphylococcus aureus 100 (ATCC 29213); assay: MIC by broth microdilution, SA 100; conditions: Staphylococcus aureus, ATCC29213, read-out: MIC SA 100
Method in brief: (§1)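 Using automated dilution and transfer, MIC values are obtained by NCCLS/CLSI broth microdilution in Mueller-Hinton broth against clinical strains of varying glycopeptide susceptibility.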

[2] = test system: Staphylococcus aureus 757 (MRSA); assay: MIC by broth microdilution, SA 757; conditions: Staphylococcus aureus, MRSA, read-out: MIC SA 757
Method in brief: as §1

[3] = test system: Staphylococcus aureus 2012 (VISA); assay: MIC by broth microdilution, SA 2012; conditions: for MIC: Staphylococcus aureus, VISA, read-out: MIC SA 2012, Staphylococcus aureus 2012 (VISA)
Method in brief: as §1

[4] = test system: Staphylococcus epidermidis 835; assay: MIC by broth microdilution, SE 835; conditions: Staphylococcus epidermidis, 835, read-out: MIC SE 835
Method in brief: as §1

[5] = test system: Staphylococcus epidermidis 831 (MRSE); assay: MIC by broth microdilution, SE 831; conditions: Staphylococcus epidermidis, MRSE, read-out: MIC SE 831
Method in brief: as §1

[6] = test system: Enterococcus faecalis 101 (ATCC 29212); assay: MIC by broth microdilution, EFc 101; conditions: for MIC: Enterococcus faecalis, ATCC29212, read-out: MIC E FC 101, Enterococcus faecalis 101 (ATCC 29212)
Method in brief: as §1

[7] = test system: Enterococcus faecalis 848 (VRE, Van A); assay: MIC by broth microdilution, EFc 848; conditions: Enterococcus faecalis, VRE, read-out: MIC E FC 848, Enterococcus faecalis 848 (VRE, Van A)
Method in brief: as §1

[8] = test system: Enterococcus faecium 800; assay: MIC by broth microdilution, EFcm 800; conditions: Enterococcus faecium, 800, read-out: MIC E FCM 800
Method in brief: as §1

[9] = test system: Enterococcus faecium 752 (VRE, Van A); assay: MIC by broth microdilution, EFcm 752; conditions: Enterococcus faecium, VRE, read-out: MIC E FCM 752, Enterococcus faecium 752 (VRE, Van A)
Method in brief: as §1

[10] = test system: Streptococcus pneumoniae 1195 (ATCC 49619); assay: MIC by broth microdilution, SPNE 1195; conditions: Streptococcus pneumoniae, ATCC49619, read-out: MIC S PNE 1195
Method in brief: as §1

[11] = test system: Streptococcus pyogenes 712; assay: MIC by broth microdilution, SPY 712; conditions: Streptococcus pyogenes, 712, read-out: MIC S PYO 712
Method in brief: as §1

Structure (SMILES)	MIC [1] [µg/mL]	MIC [2] [µg/mL]	MIC ([3]; class symbols) [µg/mL]	MIC [4] [µg/mL]	MIC [5] [µg/mL]	MIC ([6]; class symbols) [µg/mL]	MIC ([7]; class symbols) [µg/mL]	MIC [8] [µg/mL]	MIC ([9]; class symbols) [µg/mL]	MIC [10] [µg/mL]	MIC [11] [µg/mL]	MIC SA 2012 ([3]; Staphylococcus aureus 2012 (VISA), numeric, comparison) [µg/mL]	MIC ([3]; numeric, comparison) [µg/mL]	MIC E FC 101 ([6]; Enterococcus faecalis 101 (ATCC 29212), numeric, comparison) [µg/mL]	MIC ([6]; numeric, comparison) [µg/mL]	MIC ([7]; numeric, comparison) [µg/mL]	MIC ([9]; numeric, comparison) [µg/mL]
CCNCCOc1ccc(CCNC(=O)Oc2cc(O)c3c(c2)[C@@H](C(=O)NC2C4CC5CC(C4)CC2C5)NC(=O)[C@H]2NC(=O)[C@H](NC(=O)[C@@H]4NC(=O)[C@H](CC(N)=O)NC(=O)[C@H](NC(=O)[C@@H](CC(C)C)NC)[C@H](O)c5ccc(c(Cl)c5)Oc5cc4cc(c5O[C@@H]4O[C@H](CO)[C@@H](O)[C@H](O)[C@H]4O[C@H]4C[C@](C)(N)[C@H](O)[C@H](C)O4)Oc4ccc(cc4Cl)[C@H]2O)c2ccc(O)c-3c2)cc1 (stereo partly shown) [Compound 337]	0.01 to 0.5 (≈ 0.0055 to 0.275 µM)	0.01 to 0.5 (≈ 0.0055 to 0.275 µM)	1 to 2 (≈ 0.55 to 1.1 µM)	0.01 to 0.5 (≈ 0.0055 to 0.275 µM)	0.01 to 0.5 (≈ 0.0055 to 0.275 µM)	0.01 to 0.5 (≈ 0.0055 to 0.275 µM)	8 to 16 (≈ 4.4 to 8.81 µM)	0.01 to 0.5 (≈ 0.0055 to 0.275 µM)	4 to 8 (≈ 2.2 to 4.4 µM)	0.01 to 0.5 (≈ 0.0055 to 0.275 µM)	0.01 to 0.5 (≈ 0.0055 to 0.275 µM)						
CCCCOc1ccc(CCNC(=O)Oc2cc(O)c3c(c2)[C@@H](C(=O)NC2C4CC5CC(C4)CC2C5)NC(=O)[C@H]2NC(=O)[C@H](NC(=O)[C@@H]4NC(=O)[C@H](CC(N)=O)NC(=O)[C@H](NC(=O)[C@@H](CC(C)C)NC)[C@H](O)c5ccc(c(Cl)c5)Oc5cc4cc(c5O[C@@H]4O[C@H](CO)[C@@H](O)[C@H](O)[C@H]4O[C@H]4C[C@](C)(N)[C@H](O)[C@H](C)O4)Oc4ccc(cc4Cl)[C@H]2O)c2ccc(O)c-3c2)cc1 (stereo partly shown) [Compound 339]	0.01 to 0.5 (≈ 0.00555 to 0.278 µM)	0.01 to 0.5 (≈ 0.00555 to 0.278 µM)	0.5 to 1 (≈ 0.278 to 0.555 µM)	0.01 to 0.5 (≈ 0.00555 to 0.278 µM)	0.01 to 0.5 (≈ 0.00555 to 0.278 µM)	0.01 to 0.5 (≈ 0.00555 to 0.278 µM)	4 to 8 (≈ 2.22 to 4.44 µM)	0.01 to 0.5 (≈ 0.00555 to 0.278 µM)	0.5 to 1 (≈ 0.278 to 0.555 µM)	0.01 to 0.5 (≈ 0.00555 to 0.278 µM)	0.01 to 0.5 (≈ 0.00555 to 0.278 µM)						
CCCCCOCCNC(=O)Oc1cc(O)c2c(c1)[C@@H](C(=O)NC1C3CC4CC(C3)CC1C4)NC(=O)[C@H]1NC(=O)[C@H](NC(=O)[C@@H]3NC(=O)[C@H](CC(N)=O)NC(=O)[C@H](NC(=O)[C@@H](CC(C)C)NC)[C@H](O)c4ccc(c(Cl)c4)Oc4cc3cc(c4O[C@@H]3O[C@H](CO)[C@@H](O)[C@H](O)[C@H]3O[C@H]3C[C@](C)(N)[C@H](O)[C@H](C)O3)Oc3ccc(cc3Cl)[C@H]1O)c1ccc(O)c-2c1 (stereo partly shown) [Compound 340]	0.01 to 0.5 (≈ 0.00575 to 0.287 µM)	0.01 to 0.5 (≈ 0.00575 to 0.287 µM)	0.5 to 1 (≈ 0.287 to 0.575 µM)	0.01 to 0.5 (≈ 0.00575 to 0.287 µM)	0.01 to 0.5 (≈ 0.00575 to 0.287 µM)	0.01 to 0.5 (≈ 0.00575 to 0.287 µM)	8 to 16 (≈ 4.6 to 9.2 µM)	0.01 to 0.5 (≈ 0.00575 to 0.287 µM)	2 to 4 (≈ 1.15 to 2.3 µM)	0.01 to 0.5 (≈ 0.00575 to 0.287 µM)	0.01 to 0.5 (≈ 0.00575 to 0.287 µM)						
CN[C@H](CC(C)C)C(=O)N[C@H]1C(=O)N[C@@H](CC(N)=O)C(=O)N[C@H]2C(=O)N[C@H]3C(=O)N[C@H](C(=O)N[C@H](C(=O)O)c4cc(O)cc(O)c4-c4cc3ccc4O)[C@H](O)c3ccc(c(Cl)c3)Oc3cc2cc(c3O[C@@H]2O[C@H](CO)[C@@H](O)[C@H](O)[C@H]2O[C@H]2C[C@](C)(N)[C@H](O)[C@H](C)O2)Oc2ccc(cc2Cl)[C@H]1O [Vancomycin, vancomycin, reference compound]	1 (≈ 0.69 µM)	1 (≈ 0.69 µM)		2 (≈ 1.38 µM)	2 (≈ 1.38 µM)			1 (≈ 0.69 µM)		0.25 (≈ 0.173 µM)	0.5 (≈ 0.345 µM)	8 (≈ 5.52 µM)	16 (≈ 11 µM)	4 (≈ 2.76 µM)	2 (≈ 1.38 µM)	> 64	> 64

— patent US20110015119A1, “NOVEL SEMI-SYNTHETIC GLYCOPEPTIDES AS ANTIBACTERIAL AGENTS” (LEAD THERAPEUTICS, INC., priority 2009, published 2011)
